Earlier results on one compound are cited in US20230278953A1, “WATER SOLUBLE PRODRUGS OF PTBA FOR USE IN HDAC INHIBITION AND ENHANCING RENAL RECOVERY FOLLOWING ACUTE KIDNEY INJURY” (KLOTHO THERAPEUTICS, INC., priority 2020, published 2023).

The series deals with renal progenitor cells. The settings on record: zebrafish embryos; proliferation-dependent manner; cited from earlier work.

On to `O=C(O)CCCSc1ccccc1` [PTBA, 4-(phenylthio)butanoic acid], for which the “effect on pool of renal progenitor cells” value is “seemed to expand the pool of renal progenitor cells”.
